Experimental data published in patent US10214531B2 (Institute for Drug Discovery, LLC, priority 2013, dated 2019).
Structures can show the parent of a compound that is named as a salt.

The molecules below were run against recombinant human AMCase (Homo sapiens, UniProt Q9BZP6) (assay: Human AMCase Activity Assay). Details: recombinant hAMCase, 4-methylumbelliferyl chitobioside substrate, citrate buffer pH 5.2, 37° C., 60 minutes; read-out: Activity (IC50 value key).
Format: biochemical
Method in brief: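 Recombinant human enzyme with fluorogenic 4-methylumbelliferyl β-D-N,N′-diacetylchitobioside substrate in citrate buffer, pH 5.2, 60 min at 37 °C in the dark with shaking. Read-out is 4MU fluorescence at 460 nm.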

Chain of recombinant human AMCase (Q9BZP6 22-476): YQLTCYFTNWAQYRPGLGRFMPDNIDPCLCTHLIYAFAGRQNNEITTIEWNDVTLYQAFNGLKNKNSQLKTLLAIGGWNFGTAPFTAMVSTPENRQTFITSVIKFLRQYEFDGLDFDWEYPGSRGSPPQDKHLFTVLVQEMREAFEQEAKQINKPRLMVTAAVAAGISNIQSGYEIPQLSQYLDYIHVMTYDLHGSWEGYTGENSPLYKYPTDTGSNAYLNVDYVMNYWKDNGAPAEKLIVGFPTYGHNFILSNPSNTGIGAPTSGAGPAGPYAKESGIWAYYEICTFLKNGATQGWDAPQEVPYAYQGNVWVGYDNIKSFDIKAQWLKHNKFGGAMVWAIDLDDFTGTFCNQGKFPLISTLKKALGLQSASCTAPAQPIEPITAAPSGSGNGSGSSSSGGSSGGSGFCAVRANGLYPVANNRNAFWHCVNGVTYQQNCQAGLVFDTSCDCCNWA

Row | SMILES | IC50
1 | Nc1n[nH]c(N2CCC(N(CCc3ccc(Cl)cc3)Cc3ccccc3C(F)(F)F)CC2)n1 [Example 113, 1-(3-amino-1H-1,2,4-triazol-5-yl)-N-(4-chlorophenethyl)-N-(2-(trifluoromethyl)benzyl)piperidin-4-amine] | < 0.1 µM
2 | Nc1n[nH]c(N2CCN(CCOc3ccccc3Cl)CC2)n1 [Example 79, 5-(4-(2-(2-chlorophenoxy)ethyl)piperazin-1-yl)-1H-1,2,4-triazol-3-amine] | 10 to 100 µM
3 | CC(Cc1ccc(Cl)cc1)NC1CCN(c2nc(N)n[nH]2)CC1 (stereo not drawn) [Example 151, 1-(3-amino-1H-1,2,4-triazol-5-yl)-N-(1-(4-chlorophenyl)propan-2-yl)piperidin-4-amine dihydrochloride] | 1 to 10 µM
4 | Nc1n[nH]c(N2CCC(N(CCc3ccc(Br)cc3)Cc3ccccc3Cl)CC2)n1 [Example 98, 1-(3-amino-1H-1,2,4-triazol-5-yl)-N-(4-bromophenethyl)-N-(2-chlorobenzyl) piperidin-4-amine] | < 0.1 µM
5 | C[C@H](c1ccccc1)N(CCc1ccc(Cl)cc1)C1CCN(c2nc(N)n[nH]2)CC1 [Example 118, (R)-1-(3-amino-1H-1,2,4-triazol-5-yl)-N-(4-chlorophenethyl)-N-(1-phenylethyl)piperidin-4-amine] | < 0.1 µM
6 | Nc1n[nH]c(N2CCC(CC(=O)Nc3ccc(Br)cc3)CC2)n1 [Example 70, 2-(1-(3-amino-1H-1,2,4-triazol-5-yl)piperidin-4-yl)-N-(4-bromophenyl)acetamide] | > 100 µM
7 | Nc1n[nH]c(N2CCN(C(=O)C(O)Cc3ccccc3Cl)CC2)n1 (stereo not drawn) [Example 73, 1-(4-(3-amino-1H-1,2,4-triazol-5-yl)piperazin-1-yl)-3-(2-chlorophenyl)-2-hydroxypropan-1-one] | > 100 µM
8 | CC1CN(c2nc(N)n[nH]2)CCN1CCOc1ccc(Br)cc1 (stereo not drawn) [Example 26, 5-(4-(2-(4-bromophenoxy)ethyl)-3-methylpiperazin-1-yl)-1H-1,2,4-triazol-3-amine] | 1 to 10 µM
9 | CC(CNC1CCN(c2nc(N)n[nH]2)CC1)c1ccc(Cl)cc1 (stereo not drawn) [Example 147, 1-(3-amino-1H-1,2,4-triazol-5-yl)-N-(2-(4-chlorophenyl)propyl)piperidin-4-aminedihydrochloride] | 10 to 100 µM
10 | CS(=O)(=O)c1ccc(-c2noc(C3CCN(c4nc(N)n[nH]4)CC3)n2)cc1 [Example 42, 5-(4-(3-(4-(methylsulfonyl)phenyl)-1,2,4-oxadiazol-5-yl)piperidin-1-yl)-1H-1,2,4-triazol-3-amine] | > 100 µM
11 | Nc1n[nH]c(N2CCN(C(=O)OCc3ccccc3)CC2)n1 [Example 47, benzyl 4-(3-amino-1H-1,2,4-triazol-5-yl)piperazine-1-carboxylate] | > 100 µM
12 | Nc1n[nH]c(N2CCC(NS(=O)(=O)Cc3cc(Cl)cc(Cl)c3)CC2)n1 [Example 58, N-(1-(3-amino-1H-1,2,4-triazol-5-yl)piperidin-4-yl)-1-(3,5-dichlorophenyl)methanesulfonamide] | 1 to 10 µM
13 | C[C@@H](CN1CCN(c2nc(N)n[nH]2)CC1)Oc1ccc(Cl)cc1 [Example 65, (S)-5-(4-(2-(4-chlorophenoxy)propyl)piperazin-1-yl)-1H-1,2,4-triazol-3-amine] | 10 to 100 µM
14 | Nc1n[nH]c(N2CCC(C(=O)NCc3ccc(F)cc3C(F)(F)F)CC2)n1 [Example 50, 1-(3-amino-1H-1,2,4-triazol-5-yl)-N-(4-fluoro-2-(trifluoromethyl)benzyl)piperidine-4-carboxamide] | > 100 µM
15 | Nc1n[nH]c(N2CCC(NC(=O)C(O)c3ccc(Cl)cc3)CC2)n1 (stereo not drawn) [Example 71, N-(1-(3-amino-1H-1,2,4-triazol-5-yl)piperidin-4-yl)-2-(4-chlorophenyl)-2-hydroxyacetamide] | > 100 µM
16 | Nc1n[nH]c(N2CCN(C(=O)COc3ccc(Cl)c([N+](=O)[O-])c3)CC2)n1 [Example 74, 1-(4-(3-amino-1H-1,2,4-triazol-5-yl)piperazin-1-yl)-2-(4-chloro-3-nitrophenoxy)ethanone] | > 100 µM
17 | Nc1n[nH]c(N2CCC(NCCc3ccc(Br)cc3)CC2)n1 [Example 22, 1-(3-amino-1H-1,2,4-triazol-5-yl)-N-(4-bromophenethyl)piperidin-4-amine] | 1 to 10 µM
18 | C[C@@H](c1ccccc1)N(CCc1ccc(Cl)cc1)C1CCN(c2nc(N)n[nH]2)CC1 [Example 103, (S)-1-(3-amino-1H-1,2,4-triazol-5-yl)-N-(4-chlorophenethyl)-N-(1-phenylethyl) piperidin-4-amine] | 0.1 to 1 µM
19 | Nc1n[nH]c(N2CCC(N(CCc3ccc(Br)cc3)Cc3ccccc3)CC2)n1 [Example 146, 1-(3-amino-1H-1,2,4-triazol-5-yl)-N-benzyl-N-(4-bromophenethyl)piperidin-4-amine] | < 0.1 µM
20 | Cc1cccc(OC(C)C(=O)N2CCN(c3nc(N)n[nH]3)CC2)c1 (stereo not drawn) [Example 36, 1-(4-(3-amino-1H-1,2,4-triazol-5-yl)piperazin-1-yl)-2-(m-tolyloxy)propan-1-one] | > 100 µM
21 | CC(Cc1ccc(Cl)cc1)N(C)C1CCN(c2nc(N)n[nH]2)CC1 (stereo not drawn) [Example 141, 1-(3-amino-1H-1,2,4-triazol-5-yl)-N-(1-(4-chlorophenyl)propan-2-yl)-N-methylpiperidin-4-amine dihydrochloride] | 0.1 to 1 µM
22 | Nc1nc(N2CCC(N(CCc3ccc(Cl)cc3)Cc3ccc(Cl)cc3)CC2)n[nH]1 [Example 134, 1-(3-amino-1H-1,2,4-triazol-5-yl)-N-(4-chlorobenzyl)-N-(4-chlorophenethyl)piperidin-4-amine] | < 0.1 µM
23 | Nc1n[nH]c(N2CCC(N(CCc3ccc(Br)cc3)Cc3cccc4ccccc34)CC2)n1 [Example 129, 1-(3-amino-1H-1,2,4-triazol-5-yl)-N-(4-bromophenethyl)-N-(naphthalen-1-ylmethyl)piperidin-4-amine] | < 0.1 µM
24 | Nc1n[nH]c(N2CCC(NS(=O)(=O)Cc3ccc(Cl)c(Cl)c3)CC2)n1 [Example 15, N-(1-(3-amino-1H-1,2,4-triazol-5-yl)piperidin-4-yl)-1-(3,4-dichlorophenyl)methanesulfonamide] | 10 to 100 µM
25 | C[C@H](CN1CCN(c2nc(N)n[nH]2)CC1)Oc1ccc(Br)cc1 [Example 61, (R)-5-(4-(2-(4-bromophenoxy)propyl)piperazin-1-yl)-1H-1,2,4-triazol-3-amine] | 1 to 10 µM
26 | Nc1n[nH]c(N2CCC(N(CCc3ccc(Cl)cc3)Cc3cccc(CO)c3)CC2)n1 [Example 100, (3-(((1-(3-amino-1H-1,2,4-triazol-5-yl)piperidin-4-yl)(4-chlorophenethyl)amino)methyl)phenyl)methanol] | < 0.1 µM
27 | CCC(CN1CCN(c2nc(N)n[nH]2)CC1)Oc1ccc(Cl)cc1 (stereo not drawn) [Example 63, 5-(4-(2-(4-chlorophenoxy)butyl)piperazin-1-yl)-1H-1,2,4-triazol-3-amine] | 10 to 100 µM

Other lines, results leading:

Row | IC50 | SMILES
28 | > 100 µM | Cc1cccc(C(=O)NCC2CCN(c3nc(N)n[nH]3)CC2)c1C [Example 210, N-((1-(3-amino-1H-1,2,4-triazol-5-yl)piperidin-4-yl)methyl)-2,3-dimethylbenzamide]
29 | 0.1 to 1 µM | CN(CCc1cccc(C(F)(F)F)c1)C1CCN(c2nc(N)n[nH]2)CC1 [Example 180, 1-(3-amino-1H-1,2,4-triazol-5-yl)-N-methyl-N-(3-(trifluoromethyl)phenethyl)piperidin-4-amine]
30 | 1 to 10 µM | CN(CCc1ccc(F)cc1)C1CCN(c2nc(N)n[nH]2)CC1 [Example 183, 1-(3-amino-1H-1,2,4-triazol-5-yl)-N-(4-fluorophenethyl)-N-methylpiperidin-4-amine]
31 | 0.1 to 1 µM | CC(=O)OCCCC1CN(c2nc(N)n[nH]2)CCN1CCCc1ccc(Br)cc1 (stereo not drawn) [Example 224, 3-(4-(3-amino-1H-1,2,4-triazol-5-yl)-1-(3-(4-bromophenyl)propyl)piperazin-2-yl)propylacetate]
32 | > 100 µM | CN(C1CCN(c2nc(N)n[nH]2)CC1)C1CCc2ccccc2C1 (stereo not drawn) [Example 250, 1-(3-amino-1H-1,2,4-triazol-5-yl)-N-methyl-N-(1,2,3,4-tetrahydronaphthalen-2-yl)piperidin-4-amine dihydrochloride]
33 | > 100 µM | Nc1n[nH]c(N2CCC(CNCc3ccc(Cl)c(Cl)c3)CC2)n1 [Example 252, 5-(4-(((3,4-dichlorobenzyl)amino)methyl)piperidin-1-yl)-1H-1,2,4-triazol-3-amine dihydrochloride]
34 | < 0.1 µM | Nc1n[nH]c(N2CCC(N(CCc3ccc(Br)cc3)Cc3cccc4cnccc34)CC2)n1 [Example 168, 1-(3-amino-1H-1,2,4-triazol-5-yl)-N-(4-bromophenethyl)-N-(isoquinolin-5-ylmethyl)piperidin-4-amine]
35 | > 100 µM | COc1ccccc1CNC(=O)C1CCN(c2nc(N)n[nH]2)CC1 [Example 197, 1-(3-amino-1H-1,2,4-triazol-5-yl)-N-(2-methoxybenzyl)piperidine-4-carboxamide]
36 | > 100 µM | Nc1n[nH]c(N2CCC(CNC(=O)c3cc(Cl)cc(Cl)c3)CC2)n1 [Example 243, N-((1-(3-amino-1H-1,2,4-triazol-5-yl)piperidin-4-yl)methyl)-3,5-dichlorobenzamide]
37 | 1 to 10 µM | CN(CCc1ccc(Cl)cc1)C1(CCCO)CCN(c2nc(N)n[nH]2)CC1 [Example 245, 3-(1-(3-amino-1H-1,2,4-triazol-5-yl)-4-((4-chlorophenethyl)(methyl)amino)piperidin-4-yl)propan-1-ol]
38 | < 0.1 µM | COc1ccc(CN(CCc2ccc(Cl)cc2)C2CCN(c3nc(N)n[nH]3)CC2)cc1 [Example 152, 1-(3-amino-1H-1,2,4-triazol-5-yl)-N-(4-chlorophenethyl)-N-(4-methoxybenzyl)piperidin-4-amine]
39 | 10 to 100 µM | CN(CCc1ccccn1)C1CCN(c2nc(N)n[nH]2)CC1 [Example 157, 1-(3-amino-1H-1,2,4-triazol-5-yl)-N-methyl-N-(2-(pyridin-2-yl)ethyl)piperidin-4-amine trihydrochloride]
